Source: patent US7799800B2, “Lipid-modified immune response modifiers” (3M Innovative Properties Company, priority 2003, dated 2010)

SMILES | melting point
CCCCCCCCCCCC(=O)NCCOCCn1c(CCOC)nc2c(N)nc3ccccc3c21 [Example 3, N-(2-{2-[4-amino-2-(2-methoxyethyl)-1H-imidazo[4,5-c]quinolin-1-yl]ethoxy}ethyl)dodecanamide] | 80 to 83 °C
CCCCCCCCCCCCCC(=O)NCCOCCn1c(CCOC)nc2c(N)nc3ccccc3c21 [Example 4, N-(2-{2-[4-amino-2-(2-methoxyethyl)-1H-imidazo[4,5-c]quinolin-1-yl]ethoxy}ethyl)tetradecanamide] | 85 to 87 °C
CCCCCCCCCCCCCCCCCC(=O)NCCOCCn1c(CCOC)nc2c(N)nc3ccccc3c21 [Example 2, N-(2-{2-[4-amino-2-(2-methoxyethyl)-1H-imidazo[4,5-c]quinolin-1-yl]ethoxy}ethyl)octadecanamide] | 80 to 83 °C
